pIC50: −log10 of the molar value.
What was measured:
[1] = Cytotoxicity against MDBK cells incubated for 72 hrs by CCK8 assay; format: toxicity, cell-based, Bos taurus; details: cattle; for CC50: mdbk, 72 h; for CC50 at 72 h: MDBK cells
[2] = Selectivity index, ratio of CC50 for MDBK to IC50 for Trypanosoma evansi Tansui; format: toxicity, cell-based; details: cattle, MDBK cells; read-out: Ratio CC50/IC50
[3] = Cytotoxicity against human […]-differentiated THP-1 cells incubated for 72 hrs by resazurin dye based assay; format: toxicity, cell-based
[4] = Selectivity index, ratio of CC50 for MDBK to IC50 for Trypanosoma brucei rhodesiense IL1501; format: toxicity, cell-based; details: cattle, MDBK cells; read-out: Ratio CC50/IC50
[5] = Selectivity index, ratio of CC50 for MDBK to IC50 for Trypanosoma congolense IL3000; format: toxicity, cell-based; details: cattle, MDBK cells; read-out: Ratio CC50/IC50
[6] = system: Trypanosoma equiperdum; assay: Trypanocidal activity against Trypanosoma equiperdum IVM-t1 incubated for 72 hrs by CellTiter-Glo reagent based […] analysis; format: functional, organism-based; details: IVM-t1, 72 h
[7] = system: Trypanosoma evansi; assay: Trypanocidal activity against Trypanosoma evansi Tansui incubated for 72 hrs by CellTiter-Glo reagent based […] analysis; format: functional, organism-based
[8] = system: Trypanosoma brucei rhodesiense; assay: Trypanocidal activity against Trypanosoma brucei rhodesiense IL1501 incubated for 72 hrs by CellTiter-Glo reagent based […] analysis; format: functional, organism-based; details: IL1501, 72 h
[9] = Selectivity index, ratio of IC50 for human THP-1 cells to IC50 for Leishmania donovani 9515 (MHOM/IN/95/9151) promastigote; format: toxicity, cell-based; details: read-out: Ratio IC50
[10] = system: Leishmania donovani; assay: Leishmanicidal activity against Leishmania donovani 9515 (MHOM/IN/95/9151) amastigote infected in THP-1 cells incubated for 72 hrs by resazurin dye based plate reader assay; format: functional, organism-based; details: THP-1, 72 h
[11] = Selectivity index, ratio of CC50 for MDBK to IC50 for Trypanosoma brucei gambiense IL1922; format: toxicity, cell-based; details: cattle, MDBK cells; read-out: Ratio CC50/IC50
[12] = Selectivity index, ratio of IC50 for african green monkey Vero cells to IC50 for Leishmania donovani 9515 (MHOM/IN/95/9151) promastigote; format: toxicity, cell-based; details: read-out: Ratio IC50
[13] = system: Trypanosoma congolense; assay: Trypanocidal activity against Trypanosoma congolense IL3000 incubated for 72 hrs by CellTiter-Glo reagent based […] analysis; format: functional, organism-based; details: IL3000, 72 h
[14] = system: Trypanosoma brucei gambiense; assay: Trypanocidal activity against Trypanosoma brucei gambiense IL1922 incubated for 72 hrs by CellTiter-Glo reagent based […] analysis; format: functional, organism-based; details: IL1922, 72 h
[15] = system: Trypanosoma brucei brucei; assay: Trypanocidal activity against Trypanosoma brucei brucei GUTat3.1 incubated for 72 hrs by CellTiter-Glo reagent based […] analysis; format: functional, organism-based; details: GUTat3.1, 72 h
[16] = Selectivity index, ratio of CC50 for MDBK to IC50 for Trypanosoma brucei brucei GUTat3.1; format: toxicity, cell-based; details: cattle, MDBK cells; read-out: Ratio CC50/IC50
[17] = Cytotoxicity against green monkey Vero cells incubated for 48 hrs by resazurin dye based assay; format: toxicity, cell-based; details: African green monkey (Chlorocebus sabaeus)
[18] = system: Leishmania donovani; assay: Antileishmanial activity against Leishmania donovani 9515 (MHOM/IN/95/9151) amastigote infected in THP-1 cells assessed as inhibition of parasite growth incubated for 72 hrs by resazurin dye based plate reader assay; format: functional, organism-based; details: THP-1, 72 h
[19] = Selectivity index, ratio of CC50 for MDBK to IC50 for Trypanosoma equiperdum IVM-t1; format: toxicity, cell-based; details: cattle, MDBK cells; read-out: Ratio CC50/IC50
[20] = system: Leishmania donovani; assay: Antileishmanial activity against Leishmania donovani 9515 (MHOM/IN/95/9151) promastigote incubated for 48 hrs by resazurin dye based plate reader assay; format: functional, organism-based
[21] = Selectivity index, ratio of IC50 for human THP-1 cells to IC50 for Leishmania major IR-173 (MHO-M/IR/-173) promastigote; format: toxicity, cell-based; details: read-out: Ratio IC50
[22] = system: Leishmania major; assay: Leishmanicidal activity against Leishmania major NIH-S (MHOM/SN/74/Seidman) amastigote incubated for 48 hrs by resazurin dye based plate reader assay; format: functional, organism-based
[23] = Selectivity index, ratio of IC50 for african green monkey Vero cells to IC50 for Leishmania major IR-173 (MHO-M/IR/-173) promastigote; format: toxicity, cell-based; details: read-out: Ratio IC50
[24] = system: Leishmania major; assay: Antileishmanial activity against Leishmania major NIH-S (MHOM/SN/74/Seidman) amastigote infected in THP-1 cells assessed as inhibition of parasite growth incubated for 72 hrs by resazurin dye based plate reader assay; format: functional, organism-based; details: THP-1, 72 h
[25] = Selectivity index, ratio of IC50 for african green monkey Vero cells to IC50 for static antileishmanial activity against Leishmania donovani 9515 (MHOM/IN/95/9151) amastigote; format: toxicity, cell-based; details: read-out: Ratio IC50
[26] = Selectivity index, ratio of IC50 for human THP-1 cells to IC50 for static antileishmanial activity against Leishmania donovani 9515 (MHOM/IN/95/9151) amastigote; format: toxicity, cell-based; details: read-out: Ratio IC50
[27] = Selectivity index, ratio of IC50 for african green monkey Vero cells to IC50 for leishmanicidal activity against Leishmania donovani 9515 (MHOM/IN/95/9151) amastigote; format: toxicity, cell-based; details: read-out: Ratio IC50
[28] = Selectivity index, ratio of IC50 for human THP-1 cells to IC50 for leishmanicidal activity against Leishmania donovani 9515 (MHOM/IN/95/9151) amastigote; format: toxicity, cell-based; details: read-out: Ratio IC50
[29] = system: Leishmania major; assay: Antileishmanial activity against Leishmania major IR-173 (MHO-M/IR/-173) promastigote incubated for 48 hrs by resazurin dye based plate reader assay; format: functional, organism-based
[30] = system: Trypanosoma cruzi; assay: Antitrypanosomal activity against Trypanosoma cruzi Tulahuen C4 strain trypomastigotes assessed as growth inhibition at 20 uM incubated for 48 hrs by resazurin dye based assay; format: functional; set-up: scale not given: the % may be the effect or the level left
[31] = system: Trypanosoma cruzi; assay: Antitrypanosomal activity against Trypanosoma cruzi Tulahuen C4 strain amastigotes infected in Vero cells incubated for 72 hrs by beta-galactosidase based assay; format: functional, organism-based

Row | SMILES | selectivity ratio [2] | IC50 at 72 h [3] [µM] | selectivity ratio [4] | selectivity ratio [5] | pIC50 [6] | pIC50 [7] | pIC50 [8] | selectivity ratio [9] | pIC50 [10] | selectivity ratio [11] | pIC50 [13] | pIC50 [14] | pIC50 [15] | IC50 at 48 h [17] [µM] | pIC50 [18] | pIC50 [20] | selectivity ratio [25] | selectivity ratio [26] | selectivity ratio [27] | selectivity ratio [28] | other results
1 | C#CCn1cc(/C=N\N=C\C(C)=Cc2ccccc2)c2cc([N+](=O)[O-])ccc21 | 0.41 | > 100 | 0.93 | 0.94 | 4.54 | 4.64 | 5.01 | 13 | < 5.00 | 0.34 | < 5.01 | 4.56 | 4.57 | 9.59 | < 5.00 | 5.10 | – | – | – | – | CC50 [1]: 226 µM; selectivity ratio [12]: 1; selectivity ratio [16]: 0.34; selectivity ratio [19]: 0.32
2 | C#CCn1cc(/C=N\N=C\c2ccco2)c2cc([N+](=O)[O-])ccc21 | – | > 100 | – | – | < 4.11 | < 4.11 | < 4.11 | – | 5.59 | – | < 4.11 | < 4.11 | < 4.11 | > 100 | 6.05 | < 5.00 | > 112 | 112 | > 39 | > 39 | selectivity ratio [21]: 20; CC50 at 72 h [1]: > 312 µM; pIC50 [22]: < 5.00; selectivity ratio [23]: 20; pIC50 [24]: < 5.00; pIC50 [29]: 5.31
3 | C#CCn1cc(/C=N\N=C\c2cccs2)c2cc([N+](=O)[O-])ccc21 | > 16.1 | 16.6 | 18.3 | > 75.4 | 4.74 | 4.73 | 4.79 | 2 | 6.17 | 20.2 | 5.40 | 4.83 | 4.67 | 10.8 | 6.05 | 5.15 | 12 | 16 | 16 | 25 | CC50 at 72 h [1]: > 297 µM; selectivity ratio [12]: 2; selectivity ratio [16]: > 13.9; selectivity ratio [19]: > 16.2
4 | C#CCn1cc(\C=N/N=C/C=C/c2ccccc2)c2cc([N+](=O)[O-])ccc21 | – | 35.8 | – | > 29.9 | < 4.15 | < 4.15 | < 4.15 | – | 6.16 | – | 5.03 | < 4.15 | < 4.15 | 24.5 | 6.47 | < 5.00 | 75 | 75 | 37 | 52 | selectivity ratio [21]: 4; CC50 at 72 h [1]: 9.2 µM; pIC50 [22]: < 5.00; selectivity ratio [23]: 3; pIC50 [24]: < 5.00; pIC50 [29]: 5.09
5 | O=C(Cn1ccnc1[N+](=O)[O-])NCc1ccccc1 [BENZNIDAZOLE] | – | – | – | – | – | – | – | – | – | – | – | – | – | – | – | – | – | – | – | – | Activity [30]: 100%; pIC50 [31]: 5.57
6 | C#CCn1cc(/C=N/N=C\C=C(C)C)c2cc([N+](=O)[O-])ccc21 | 1.72 | 92.6 | 1.96 | 2.41 | 4.57 | 4.40 | 4.46 | 9 | 5.99 | 2.04 | 4.55 | 4.48 | 4.43 | 80.3 | 6.28 | 5.00 | 152 | 175 | 78 | 90 | CC50 [1]: > 325 µM; selectivity ratio [12]: 8; selectivity ratio [16]: 1.82; selectivity ratio [19]: 2.53

— ChEMBL document CHEMBL6083269, “Design, synthesis, in vitro and in vivo trypanosomaticidal efficacy of novel 5-nitroindolylazines” (Eur J Med Chem, 2024)
